Assay [1] deals with broad panel of kinases (Homo sapiens, UniProt O00238). The class given is binding. The note with it: BMPR1B; 1 μM.
Assay [2] concerns the target broad panel of kinases (Homo sapiens, UniProt O95382). The class given is binding. The conditions noted are these: ASK2; 1 μM.
Assay [3] has as its target broad panel of kinases (Homo sapiens, UniProt P04629). It counts as binding. The note with it: TRKA; 1 μM.
For assay [4], the target named is broad panel of kinases (Homo sapiens, UniProt P21860). It counts as binding. The conditions noted are these: ERBB3; 1 μM.
For assay [5], the target named is broad panel of kinases (Homo sapiens, UniProt P22607, G697C). The class given is binding. The note with it: FGFR3(G697C); 1 μM.
Assay [6] addresses broad panel of kinases (Homo sapiens, UniProt P24941). It counts as binding. The note with it: CDK2; 1 μM.
Assay [7] concerns the target broad panel of kinases (Homo sapiens, UniProt P29317). It counts as binding. The note with it: EPHA2; 1 μM.
Assay [8] has as its target broad panel of kinases (Homo sapiens, UniProt P29597). The class given is binding. The conditions noted are these: 1 μM.
In assay [9] the target is broad panel of kinases (Homo sapiens, UniProt P36888, R834Q). It counts as binding. The conditions noted are these: FLT3(R834Q); 1 μM.
The target of assay [10] is broad panel of kinases (Homo sapiens, UniProt P36896). It counts as binding. The note with it: ACVR1B; 1 μM.
The target in assay [11] is broad panel of kinases (Homo sapiens, UniProt P49137). It counts as binding.
The target of assay [12] is broad panel of kinases (Homo sapiens, UniProt P51813). The class given is binding. The note with it: BMX; 1 μM.
For assay [13], the target named is broad panel of kinases (Homo sapiens, UniProt P54760). It counts as binding. The note with it: EPHB4; 1 μM.
The target in assay [14] is broad panel of kinases (Homo sapiens, UniProt Q00536). The class given is binding. The conditions noted are these: PCTK1; 1 μM.
Assay [15] has as its target broad panel of kinases (Homo sapiens, UniProt Q13233). It counts as binding. The conditions noted are these: MAP3K1; 1 μM.
The target of assay [16] is broad panel of kinases (Homo sapiens, UniProt Q15208). The class given is binding. The conditions noted are these: NDR1; 1 μM.
The target of assay [17] is broad panel of kinases (Homo sapiens, UniProt Q8IY84). The class given is binding. The conditions noted are these: NIM1; 1 μM.
Assay [18] concerns the target broad panel of kinases (Homo sapiens, UniProt Q8WTQ7). The class given is binding. The conditions noted are these: GRK7; 1 μM.
In assay [19] the target is broad panel of kinases (Homo sapiens, UniProt Q92772). It counts as binding. The conditions noted are these: CDKL2; 1 μM.
For assay [20], the target named is broad panel of kinases (Homo sapiens, UniProt Q9Y616). The class given is binding. The note with it: IRAK3; 1 μM.
In assay [21] the target is broad panel of kinases (Homo sapiens, UniProt Q9Y6E0). It counts as binding. The note with it: MST3; 1 μM.
The target in assay [22] is broad panel of kinases (Plasmodium falciparum, UniProt P62344). It counts as binding.
Assay [23] deals with kinases in BCWM.1 cells (Homo sapiens, UniProt O94921). The assay is described as follows: KINATIV assay of compounds I-3 and I-9, lysate directly labeled with ATP-biotin probe (no GF). The class given is cell-based. The method, then: (§1) The cells were harvested and lysed. […] Bound kinases were identified and quantitated by ACTIVX as described in Patricelli et al., Biochemistry, 2007, 46(2): 350-358. The compounds were tested in duplicates against duplicate or quadruplicate control samples.

Assay [24] deals with kinases in BCWM.1 cells (Homo sapiens, UniProt P23443). The description is as above. It counts as cell-based. The conditions noted are these: p70S6K; Lys2; 1 μM, 90 min; no GF. The protocol: as §1
The target in assay [25] is kinases in BCWM.1 cells (Homo sapiens, UniProt Q15208). The description is as above. The class given is cell-based. The conditions noted are these: NDR1; Lys2; 1 μM, 90 min; no GF. The protocol:
as §1

Assay [26] has as its target kinases in BCWM.1 cells (Homo sapiens, UniProt Q15349). The description is as above. It counts as cell-based. The conditions noted are these: RSK3 domain1; Lys2; 1 μM, 90 min; no GF. The method, then: as §1
In assay [27] the target is kinases in BCWM.1 cells (Homo sapiens, UniProt Q7RTN6). Described as above. The conditions noted are these: STLK5; Activation Loop; 1 μM, 90 min; no GF. It counts as cell-based. The protocol:
as §1

For assay [28], the target named is kinases in BCWM.1 cells (Homo sapiens, UniProt Q86UE8). The assay is described as above. The note with it: TLK2; Lys2; 1 μM, 90 min; no GF. It counts as cell-based. The protocol: as §1
Assay [29] deals with kinases in BCWM.1 cells (Homo sapiens, UniProt Q9BYT3). The description is as above. The conditions noted are these: STK33; Lys2; 1 μM, 90 min; no GF. The class given is cell-based. The method, then: as §1
Assay [30] addresses kinases in BCWM.1 cells (Homo sapiens, UniProt Q9UKI8). Described as above. It counts as cell-based. The conditions noted are these: TLK1; Lys2; 1 μM, 90 min; no GF. The method, then: as §1
The test system of assay [31] is kinases in BCWM.1 cells. Described as above. The class given is cell-based. The note with it: 1 μM, 90 min, no GF. The method, then: as §1

Like-named read-outs stand apart in the source and are kept apart here.

Sequence of broad panel of kinases (Homo sapiens, UniProt P29317) (P29317 24-976 limits assumed): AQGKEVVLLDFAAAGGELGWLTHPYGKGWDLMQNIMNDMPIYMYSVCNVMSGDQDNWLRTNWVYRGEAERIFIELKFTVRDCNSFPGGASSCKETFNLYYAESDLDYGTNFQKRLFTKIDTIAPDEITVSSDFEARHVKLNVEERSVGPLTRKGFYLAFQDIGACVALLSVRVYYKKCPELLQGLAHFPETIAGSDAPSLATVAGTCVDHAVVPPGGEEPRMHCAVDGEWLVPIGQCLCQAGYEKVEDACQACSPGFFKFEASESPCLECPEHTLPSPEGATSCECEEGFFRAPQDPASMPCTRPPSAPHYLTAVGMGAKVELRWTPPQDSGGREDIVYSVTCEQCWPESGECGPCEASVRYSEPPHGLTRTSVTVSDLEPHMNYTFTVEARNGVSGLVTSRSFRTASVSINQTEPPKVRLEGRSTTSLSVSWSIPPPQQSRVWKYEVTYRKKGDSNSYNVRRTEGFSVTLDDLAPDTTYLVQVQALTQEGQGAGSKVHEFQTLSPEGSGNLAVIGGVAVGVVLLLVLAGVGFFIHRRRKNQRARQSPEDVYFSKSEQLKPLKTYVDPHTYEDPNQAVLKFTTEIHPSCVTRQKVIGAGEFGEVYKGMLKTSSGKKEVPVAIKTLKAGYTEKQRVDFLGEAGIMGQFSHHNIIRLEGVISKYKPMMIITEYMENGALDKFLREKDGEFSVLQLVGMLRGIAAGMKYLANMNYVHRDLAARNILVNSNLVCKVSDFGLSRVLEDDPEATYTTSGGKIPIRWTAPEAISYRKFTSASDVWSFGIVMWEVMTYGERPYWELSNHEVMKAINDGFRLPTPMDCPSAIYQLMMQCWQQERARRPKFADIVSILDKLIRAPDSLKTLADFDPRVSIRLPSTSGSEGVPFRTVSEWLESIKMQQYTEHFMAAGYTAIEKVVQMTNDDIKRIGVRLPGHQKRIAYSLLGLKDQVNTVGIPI
Sequence of broad panel of kinases (Homo sapiens, UniProt P04629) (P04629 33-796 limits assumed): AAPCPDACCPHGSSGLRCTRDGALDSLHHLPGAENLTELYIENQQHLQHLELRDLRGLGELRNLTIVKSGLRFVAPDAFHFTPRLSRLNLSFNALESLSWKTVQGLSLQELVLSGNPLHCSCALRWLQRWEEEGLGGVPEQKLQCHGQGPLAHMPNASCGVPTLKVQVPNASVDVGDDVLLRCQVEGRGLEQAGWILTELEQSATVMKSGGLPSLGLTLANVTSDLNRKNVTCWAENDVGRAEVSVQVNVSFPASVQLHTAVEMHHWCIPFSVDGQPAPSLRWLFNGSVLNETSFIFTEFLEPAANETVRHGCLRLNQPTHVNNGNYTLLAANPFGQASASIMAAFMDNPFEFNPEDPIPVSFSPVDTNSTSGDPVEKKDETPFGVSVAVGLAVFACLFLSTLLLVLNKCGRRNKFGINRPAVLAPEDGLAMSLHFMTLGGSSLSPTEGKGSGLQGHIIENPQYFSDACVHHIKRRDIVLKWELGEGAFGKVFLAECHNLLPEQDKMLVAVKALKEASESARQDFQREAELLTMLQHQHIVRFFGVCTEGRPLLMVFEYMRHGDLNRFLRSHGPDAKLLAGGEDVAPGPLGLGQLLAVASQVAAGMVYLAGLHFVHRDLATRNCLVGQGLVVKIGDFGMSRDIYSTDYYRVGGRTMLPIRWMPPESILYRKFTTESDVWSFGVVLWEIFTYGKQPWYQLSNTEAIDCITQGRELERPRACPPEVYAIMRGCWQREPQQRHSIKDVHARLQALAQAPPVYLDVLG
Sequence of broad panel of kinases (Homo sapiens, UniProt O00238) (O00238 14-502 limits assumed): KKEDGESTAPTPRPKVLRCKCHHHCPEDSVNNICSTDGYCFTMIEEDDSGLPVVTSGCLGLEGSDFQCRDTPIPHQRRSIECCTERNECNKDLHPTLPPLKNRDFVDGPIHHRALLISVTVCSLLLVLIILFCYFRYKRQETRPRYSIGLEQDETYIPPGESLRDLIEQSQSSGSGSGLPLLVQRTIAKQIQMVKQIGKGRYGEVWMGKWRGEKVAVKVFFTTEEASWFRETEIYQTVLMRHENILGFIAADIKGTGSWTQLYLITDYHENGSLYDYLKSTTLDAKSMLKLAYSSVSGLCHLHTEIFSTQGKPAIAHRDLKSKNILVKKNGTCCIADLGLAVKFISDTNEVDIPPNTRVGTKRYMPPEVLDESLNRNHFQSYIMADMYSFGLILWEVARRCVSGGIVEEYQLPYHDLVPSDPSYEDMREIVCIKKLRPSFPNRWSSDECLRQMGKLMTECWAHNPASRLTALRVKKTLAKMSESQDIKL
Sequence of broad panel of kinases (Homo sapiens, UniProt Q15208) (Q15208 2-465 limits assumed): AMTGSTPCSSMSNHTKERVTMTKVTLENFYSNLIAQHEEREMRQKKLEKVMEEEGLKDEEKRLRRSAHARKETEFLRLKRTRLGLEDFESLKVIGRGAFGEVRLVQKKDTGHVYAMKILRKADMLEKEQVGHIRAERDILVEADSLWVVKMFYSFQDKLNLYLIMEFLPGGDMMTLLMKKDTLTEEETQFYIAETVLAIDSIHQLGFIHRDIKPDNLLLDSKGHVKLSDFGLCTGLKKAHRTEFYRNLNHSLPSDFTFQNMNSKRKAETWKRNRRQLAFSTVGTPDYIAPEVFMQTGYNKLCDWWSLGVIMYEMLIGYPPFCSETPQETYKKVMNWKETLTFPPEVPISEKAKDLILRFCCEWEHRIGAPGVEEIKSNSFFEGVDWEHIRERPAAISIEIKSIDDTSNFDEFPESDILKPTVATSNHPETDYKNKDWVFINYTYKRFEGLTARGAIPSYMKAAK
Sequence of kinases in BCWM.1 cells (Homo sapiens, UniProt Q15208) (Q15208 2-465 limits assumed): as above
Sequence of broad panel of kinases (Homo sapiens, UniProt P22607, G697C) (P22607 23-806 G697C limits assumed): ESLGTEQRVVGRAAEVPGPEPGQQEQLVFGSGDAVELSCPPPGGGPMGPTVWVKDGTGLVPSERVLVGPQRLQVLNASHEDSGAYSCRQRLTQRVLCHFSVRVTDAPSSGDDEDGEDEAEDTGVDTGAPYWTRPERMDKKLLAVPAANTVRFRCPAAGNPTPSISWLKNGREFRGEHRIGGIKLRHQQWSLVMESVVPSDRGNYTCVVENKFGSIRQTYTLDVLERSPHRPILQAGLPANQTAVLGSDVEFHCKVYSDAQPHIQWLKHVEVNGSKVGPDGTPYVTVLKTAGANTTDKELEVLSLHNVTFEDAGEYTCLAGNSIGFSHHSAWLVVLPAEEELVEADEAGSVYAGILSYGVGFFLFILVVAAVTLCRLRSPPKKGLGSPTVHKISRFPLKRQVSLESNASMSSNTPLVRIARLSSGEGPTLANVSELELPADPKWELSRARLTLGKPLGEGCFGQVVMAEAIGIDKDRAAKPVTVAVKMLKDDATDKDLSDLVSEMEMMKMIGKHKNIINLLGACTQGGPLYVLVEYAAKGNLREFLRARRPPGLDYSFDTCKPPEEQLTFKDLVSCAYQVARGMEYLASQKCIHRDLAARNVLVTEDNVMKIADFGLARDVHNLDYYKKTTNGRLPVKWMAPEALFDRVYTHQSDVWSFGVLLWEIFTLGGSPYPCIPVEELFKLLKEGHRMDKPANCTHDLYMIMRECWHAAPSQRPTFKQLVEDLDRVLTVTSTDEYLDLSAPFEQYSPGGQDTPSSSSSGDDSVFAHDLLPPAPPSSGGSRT
Sequence of broad panel of kinases (Plasmodium falciparum, UniProt P62344) (P62344 2-524 limits assumed): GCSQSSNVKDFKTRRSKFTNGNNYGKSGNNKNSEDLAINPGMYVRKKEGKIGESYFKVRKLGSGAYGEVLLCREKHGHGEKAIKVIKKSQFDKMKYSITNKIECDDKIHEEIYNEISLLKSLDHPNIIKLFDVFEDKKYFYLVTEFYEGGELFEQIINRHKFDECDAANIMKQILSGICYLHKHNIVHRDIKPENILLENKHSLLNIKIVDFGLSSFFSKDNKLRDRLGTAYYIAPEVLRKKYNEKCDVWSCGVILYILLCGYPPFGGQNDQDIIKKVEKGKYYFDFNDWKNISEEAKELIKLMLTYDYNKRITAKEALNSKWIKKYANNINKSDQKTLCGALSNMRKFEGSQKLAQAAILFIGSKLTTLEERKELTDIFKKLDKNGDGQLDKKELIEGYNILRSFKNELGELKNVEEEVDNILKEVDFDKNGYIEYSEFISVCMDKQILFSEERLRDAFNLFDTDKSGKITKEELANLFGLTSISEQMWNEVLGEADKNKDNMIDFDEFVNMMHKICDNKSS
Sequence of broad panel of kinases (Homo sapiens, UniProt P36896) (P36896 24-505 limits assumed): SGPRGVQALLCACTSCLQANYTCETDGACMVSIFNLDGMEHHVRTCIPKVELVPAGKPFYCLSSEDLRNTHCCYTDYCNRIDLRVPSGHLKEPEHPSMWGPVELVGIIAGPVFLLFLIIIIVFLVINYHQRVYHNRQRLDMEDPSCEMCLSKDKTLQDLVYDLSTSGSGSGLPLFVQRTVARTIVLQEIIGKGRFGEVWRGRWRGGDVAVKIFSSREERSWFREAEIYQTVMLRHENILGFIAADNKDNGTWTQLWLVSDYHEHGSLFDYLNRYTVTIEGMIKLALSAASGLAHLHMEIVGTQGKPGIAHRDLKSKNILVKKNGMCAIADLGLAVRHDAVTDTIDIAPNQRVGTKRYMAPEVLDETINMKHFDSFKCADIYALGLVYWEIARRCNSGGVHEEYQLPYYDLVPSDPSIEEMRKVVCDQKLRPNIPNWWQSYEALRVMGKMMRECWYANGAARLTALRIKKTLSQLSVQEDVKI

With `C=CC(=O)N1CC[C@H](Nc2nc(CN3CCOCC3)cc(Nc3ncc(C(=O)Nc4c(C)cccc4C)s3)n2)C1` [Example I-2], the “percent of control binding remaining (lower = stronger binding)” value worked out at 10% at broad panel of kinases [1]; 92% on broad panel of kinases [2]; 98% at broad panel of kinases [3]; 0.1% on broad panel of kinases [4]; 100% at broad panel of kinases [5]; 100% on broad panel of kinases [6]. In addition, the “percent of control binding remaining (lower = stronger binding)” value is 0.2% at broad panel of kinases [7]; 89% on broad panel of kinases [8] (TYK2(JH1domain-catalytic)); 28% on broad panel of kinases [8] (TYK2(JH2domain-pseudokinase)); 100% at broad panel of kinases [9]; 68% on broad panel of kinases [10]; 3.6% on broad panel of kinases [12]. The “percent of control binding remaining (lower = stronger binding)” value on broad panel of kinases [13] came out at 0%; at broad panel of kinases [14], 97%; at broad panel of kinases [15] it was 70%; on broad panel of kinases [16] it was 63%; on broad panel of kinases [17], 93%; on broad panel of kinases [18], 97%. For the same compound, the “percent of control binding remaining (lower = stronger binding)” value at broad panel of kinases [19] came out at 88%; at broad panel of kinases [20], 93%; on broad panel of kinases [21], 100%. For the same compound, the “% change compared to control” value at broad panel of kinases [11] is recorded as 100%; on broad panel of kinases [22], 24%.
`CCC(=O)N1CC[C@H](Nc2nccc(Nc3ncc(C(=O)Nc4c(C)cccc4C)s3)n2)C1` [Example I-9]: the “% change of MS signal compared to control sample” value (shortened to “% change of MS signal”) is given as −3.9% on kinases in BCWM.1 cells [23]; 15.9% on kinases in BCWM.1 cells [24]; −4.2% on kinases in BCWM.1 cells [25]; −1.4% at kinases in BCWM.1 cells [26]; −12.9% on kinases in BCWM.1 cells [27]; −13.3% on kinases in BCWM.1 cells [28]. Also, the “% change of MS signal” value on kinases in BCWM.1 cells [29] was 20.2%; on kinases in BCWM.1 cells [30], −7.9%; in the assay with kinases in BCWM.1 cells [31] (MST4, YSK1, Lys2) it was 9.7%; with kinases in BCWM.1 cells [31] (NEK6, NEK7, Lys2), −3.3%; in the assay on kinases in BCWM.1 cells [31] (PCTAIRE2, PCTAIRE3, Lys1) it was −4.7%; in the assay with kinases in BCWM.1 cells [31] (PI4KA, PI4KAP2, ATP) it was 20.3%. In addition, the “% change of MS signal” value was 16.9% in the assay with kinases in BCWM.1 cells [31] (PKACa, PKCb, Lys2); 24.4% with kinases in BCWM.1 cells [31] (ROCK1, ROCK2, Lys2); −12% in the assay on kinases in BCWM.1 cells [31] (RSK1 domain1, RSK2 domain1, RSK3 domain1, Lys2); 10% in the assay with kinases in BCWM.1 cells [31] (SRPK1, SRPK2, Lys1); 5.1% in the assay with kinases in BCWM.1 cells [31] (TAO1, TAO3, Lys2); −10.8% in the assay with kinases in BCWM.1 cells [31] (Wnk1, Wnk2, Wnk3, Lys2). Also, the “% change of MS signal” value with kinases in BCWM.1 cells [31] (Wnk1, Wnk2, ATP Loop) was −6.3%; with kinases in BCWM.1 cells [31] (ZC1/HGK, ZC2/TNIK, ZC3/MINK, Lys2), −2%; in the assay on kinases in BCWM.1 cells [31] (p38d, p38g, Lys2), −8.8%.

(Values after patent US10844077B2, “Thiazolyl-containing compounds for treating proliferative diseases” (Dana-Farber Cancer Institute, Inc., priority 2014, dated 2020).)
